For data set [1], the target named is T1, (human) A2A adenosine receptors (Homo sapiens, UniProt P29274).
T1 construct: purchased PerkinElmer Research Products (Boston, Mass.); host or cells: HEK-293
The experiment in a line: Radioligand binding test ([3H]CGS21680 displacement, hA2A HEK-293 cell membranes). The following applies: for Ki: read-out: Ki (inhibition constant). Here is the method:
Cell membranes stably transfected with (human) A2A adenosine receptors were prepared in HEK-293 cells. The cell membranes were obtained from PerkinElmer Research Products (Boston, Mass.).
The A2A adenosine receptors used were all expressed in the cell membranes. […] (final 25 nM) was added to the diluted cell membrane, and mixed well. 50 μL of the prepared dilution solution of cell membrane was transferred to the 384-well Opti-plate containing compound and incubated at 25° C. for 90 minutes. 100 μL of 0.5% Polyethyleneimine solution (PEI) was added to […]-96 GF/B filter plate, and soaked for 90 minutes at 4° C., then 500 μL of washing buffer/well (50 mM Tris-HCl pH 7.4, 154 mM NaCl) was transferred with Cell Harvester to wash the […]-96 GF/B filter plate twice. The mixed system in the Opti-plate was transferred to the washed […]-96 GF/B filter plate, 500 μL of washing buffer/well (50 mM Tris-HCl pH 7.4, 154 mM NaCl) was used to wash the […]-96 GF/B filter plate 9 times. Incubation was performed in 37° C. incubator for 3 minutes. 40 μL of ULTIMA GOLD scintillation solution (Perkin Elmer, Cat #77-16061) was added to each well, CPM (count per minute) value was read by a MicroBeta liquid scintillation counter (PerkinElmer).

For data set [2], the target named is human adenosine receptor A2A (Homo sapiens, UniProt P29274). Put plainly: Adenosine receptor A2A cAMP test (LANCE Ultra cAMP, hADORA2A-HEK293 cells). The class given is cell-based. The following applies: cAMP test. From the text:
Experimental reagents and consumables: DMEM/F12, G418, Penicillin-Streptomycin, Versene Solution, HEPES, Hank's Buffered Saline Solution, PBS (pH 7.4, 1×, sterile), FBS, BSA Stabilizer 7.5%, Rolipram, NECA were separately purchased from Gibico, Hyclone and Sigma. LANCE® Ultra cAMP kit (Eu-cAMP tracer, Ulight-anti-cAMP reagent, cAMP detection buffer) and hADORA2A-HEK293 cells were purchased from PerkinElmer Research Products (Boston, Mass.). All other reagents were of analytical grade and obtained from commercial sources. 384-well polypropylene microplate and 384-well solid white plate were purchased from Labcyte and Corning, respectively.
The cells stably expressing human adenosine receptor A2A (hADORA2A-HEK293 cells) were cultured in DMEM/F12 medium containing 10% FBS, 1×Penicillin-Streptomycin and 400 μg/ml G418 in a 37° C. and 5% CO2 environment. Before the experiment, the cells were digested with Versene solution, and the cells were collected by centrifugation at 200 g and room temperature for 5 minutes, and finally resuspended with assay buffer (Hank's buffered saline solution, containing 5 mM HEPES, 0.1% BSA stabilizer and 10 μM Rolipram, pH 7.4). The TECAN automated liquid handling workstation was used to dilute the compound in a 384-well polypropylene microplate with DMSO to 11 concentration points in a 3-fold gradient to prepare the compound source plate, in which the 11 concentration points of the compound were 10 mM, 3.33 mM, 1.11 mM., 0.3 7mM, 0.1 2 mM, 0.041 mM, 0.013 mM, 4.57×10^−3 mM, 1.52×10^−3 mM, 5×10^−4 mM and 1.7×10^−4 mM. The Echo Acoustic Liquid Handler (Labcyte) was used to transfer the test compound from the compound source plate to an assay plate, in which the transfer volume of the compound was 10 nl/well. The hADORA2A-HEK293 cell suspension was diluted with assay buffer to 30,000 cells/ml, and the cell suspension was transferred to the assay plate at a volume of 10 μl/well (300 cells/well). The assay plate was centrifuged at 150 g for 1 minute and pre-incubated at room temperature for 30 minutes. The Eu-cAMP tracer working solution (Eu-cAMP tracer 40 μl, cAMP detection buffer 1.96 ml) (5 μl/well) was added to the assay plate, and then the Ulight-anti-cAMP working solution (13 μl of Ulight-anti-cAMP reagent and 1.95 ml of cAMP detection buffer) (5 µl/well) was added to the assay plate. The assay plate was rotated at 150 g for 30 seconds and incubated at room temperature for 30 minutes. The EnVision multimode plate reader (PerkinElmer) was used determine the level of cyclic adenosine monophosphate in the final solution (λex=320 nm, λem=665 nm & 615 nm). The EC50 (nM) value of the compound interacting with the A2A adenosine receptor to stimulate the production of cyclic adenosine monophosphate was calculated and the A2A receptor agonist titer of the compound was expressed as the EC50 (nM) value.
A general note: In TR-FRET formats the signal depends on donor and acceptor labels being close together.

[3] abbreviates: calculated from IC50 by Cheng and Prusoff equation, [S] 25 nM, Km […] nM.

Where two headings read alike, the source gives them in different places.

T1 sequence (P29274 whole entry): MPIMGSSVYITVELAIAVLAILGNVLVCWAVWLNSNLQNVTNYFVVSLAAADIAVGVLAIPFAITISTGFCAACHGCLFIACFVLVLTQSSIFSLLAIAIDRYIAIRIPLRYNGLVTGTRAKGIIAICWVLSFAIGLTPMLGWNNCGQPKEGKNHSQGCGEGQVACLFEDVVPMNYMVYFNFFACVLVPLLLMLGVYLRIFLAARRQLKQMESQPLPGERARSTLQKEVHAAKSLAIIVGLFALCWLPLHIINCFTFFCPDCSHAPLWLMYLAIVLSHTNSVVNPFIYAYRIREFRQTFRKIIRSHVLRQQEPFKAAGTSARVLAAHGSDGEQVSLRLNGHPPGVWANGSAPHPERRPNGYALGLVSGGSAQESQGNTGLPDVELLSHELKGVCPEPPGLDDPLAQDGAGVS
human adenosine receptor A2A, sequence (P29274 whole entry): as above

On to `CC(=O)Nc1ccc(/C=N/Nc2nc(N)c3ncn([C@@H]4O[C@H](CO)[C@@H](O)[C@H]4O)c3n2)cc1` [Compound 1, N-{4-{(E)-{2-{6-amino-9-[(2R,3R,4S,5R)-3,4-dihydroxy-5-(hydroxymethyl)tetrahydrofuran-2-yl]-9H-purin-2-yl}hydrazono}methyl}phenyl}acetamide], for which the melting point (as a rule, the temperature, or range, at which the solid turns liquid) came to 126 °C. Moreover, in data set [1], the IC50 (commonly the point on the concentration scale where inhibition reaches its midpoint) stood at 2840 nM. For the same compound, the Ki – broadly, a dissociation constant, usually derived from enzyme kinetics or from competition with a known ligand – in data set [1] (setting [3]) was 1330 nM.
`Nc1nc(N/N=C/c2ccc(C(F)(F)F)cc2C(F)(F)F)nc2c1ncn2[C@@H]1O[C@H](CO)[C@@H](O)[C@H]1O` [Compound 3, (2R,3R,4S,5R)-2-{6-amino-2-{2-[(E)-2,4-bis(trifluoromethyl)benzylidene]hydrazino}-9H-purin-9-yl}-5-(hydroxymethyl)tetrahydrofuran-3,4-diol] showed a melting point of 239 °C. In addition, in data set [1], the concentration for half-maximal inhibition (IC50) is greater than 10000 nM.
The compound `Nc1nc(N/N=C/c2ccc(N(c3ccccc3)c3ccccc3)cc2)nc2c1ncn2[C@@H]1O[C@H](CO)[C@@H](O)[C@H]1O` [Compound 4, (2R,3R,4S,5R)-2-{6-amino-2-{2-[(E)-4-(diphenylamino)benzylidene]hydrazino}-9H-purin-9-yl}-5-(hydroxymethyl)tetrahydrofuran-3,4-diol] displayed a melting point of 184 °C. The compound also yielded an IC50 in data set [1] of 142 nM. Also, the Ki in data set [1] (setting [3]) was 66.7 nM.
Compound `Nc1nc(N/N=C/c2cccc(OCc3ccccc3)c2)nc2c1ncn2[C@@H]1O[C@H](CO)[C@@H](O)[C@H]1O` [Compound 6, (2R,3R,4S,5R)-2-{6-amino-2-{2-[(E)-3-(benzyloxy)benzylidene] hydrazino}-9H-purin-9-yl}-5-(hydroxymethyl)tetrahydrofuran-3,4-diol] yielded a melting point of 148 °C. Also, in data set [1], the 50% inhibitory concentration (IC50) was 369 nM. Besides, in data set [1] (setting [3]), the inhibitory constant (Ki) is 173 nM.
The corresponding values for `Nc1nc(N/N=C/c2ccc(Cl)c(C(F)(F)F)c2)nc2c1ncn2[C@@H]1O[C@H](CO)[C@@H](O)[C@H]1O` [Compound 7, (2R,3R,4S,5R)-2-{6-amino-2-{2-[(E)-4-chloro-3-(trifluoromethyl)benzylidene]hydrazino}-9H-purin-9-yl}-5-(hydroxymethyl)tetrahydrofuran-3,4-diol] are 242 °C, 1710 nM and 801 nM.
`Nc1nc(N/N=C/c2ccc(-c3ccccn3)cc2)nc2c1ncn2[C@@H]1O[C@H](CO)[C@@H](O)[C@H]1O` [Compound 8, (2R,3R,4S,5R)-2-{6-amino-2-{2-[(E)-4-(pyridin-2-yl)benzylidene] hydrazino}-9H-purin-9-yl}-5-(hydroxymethyl)tetrahydrofuran-3,4-diol] registered a melting point of 164 °C. Further, in data set [1], the concentration for half-maximal inhibition (IC50) turned out to be 445 nM. For the same compound, in data set [1] (setting [3]), the Ki was 208 nM.
With `Nc1nc(N/N=C/c2ccc(-c3ccccc3)cc2)nc2c1ncn2[C@@H]1O[C@H](CO)C(O)C1O` (stereo partly drawn) [Compound 9], the melting point was 234 °C. In addition, in data set [2], the “hA2AAR agonist function” value was “shown as hA2AAR agonists”.
Compound `Nc1nc(N/N=C/c2ccc(N3CCCC3)cc2)nc2c1ncn2[C@@H]1O[C@H](CO)[C@@H](O)[C@H]1O` [Compound 10, (2R,3R,4S,5R)-2-{6-amino-2-{2-[(E)-4-(pyrrolidin-1-yl)benzylidene]hydrazino}-9H-purin-9-yl}-5-(hydroxymethyl)tetrahydrofuran-3,4-diol] yielded a melting point of 174 °C. The IC50 in data set [1] was greater than 10000 nM.
As for `Nc1nc(N/N=C/c2ccc(C(F)(F)F)cc2)nc2c1ncn2[C@@H]1O[C@H](CO)[C@@H](O)[C@H]1O` [Compound 11, (2R,3R,4S,5R)-2-{6-amino-2-{2-[(E)-4-(trifluoromethyl)benzylidene]hydrazino}-9H-purin-9-yl)-5-(hydroxymethyl)tetrahydrofuran-3,4-diol], the melting point amounted to 260 °C. Further, in data set [1], the 50% inhibitory concentration (IC50) worked out at 131 nM. The Ki in data set [1] (setting [3]) is 61.3 nM.
Consider `Nc1nc(N/N=C/c2ccc(-n3ccnc3)cc2)nc2c1ncn2[C@@H]1O[C@H](CO)[C@@H](O)[C@H]1O` [Compound 12, (2R,3R,4S,5R)-2-{2-{2-[(E)-4-(1H-imidazol-1-yl)benzylidene]hydrazino}-6-amino-9H-purin-9-yl}-5-(hydroxymethyl)tetrahydrofuran-3,4-diol], for which the melting point was 276 °C. In data set [1], this compound returned a half-maximal inhibitory concentration (IC50) of 462 nM. Besides, the Ki in data set [1] (setting [3]) was 216 nM.
In turn, `CCCOc1ccc(/C=N/Nc2nc(N)c3ncn([C@@H]4O[C@H](CO)C(O)C4O)c3n2)cc1` (stereo partly drawn) [Compound 13, (2R,3R,45,5R)-2-{6-amino-2-{2-[(E)-4-propoxybenzylidene]hydrazino}-9H-purine-9-yl}-5-(hydroxymethyl)tetrahydrofuran-3,4-diol] gave a melting point of 218 °C. Also, in data set [1], the concentration for half-maximal inhibition (IC50) was 479 nM and the Ki amounted to 224 nM.
The compound `N#Cc1ccccc1/C=N/Nc1nc(N)c2ncn([C@@H]3O[C@H](CO)C(O)C3O)c2n1` (stereo partly drawn) [Compound 14] showed a melting point of 260 °C.
Take `CCOc1cc(/C=N/Nc2nc(N)c3ncn([C@@H]4O[C@H](CO)[C@@H](O)[C@H]4O)c3n2)ccc1O` [Compound 16, (2R,3R,4S,5R)-2-{6-amino-2-{2-[(E)-3-ethoxy-4-hydroxybenzylidene]hydrazino}-9H-purin-9-yl}-5-(hydroxymethyl)tetrahydrofuran-3,4-diol]: the melting point came to 198 °C. In addition, in data set [1], the IC50 amounted to 3460 nM. Besides, the Ki in data set [1] (setting [3]) was 1620 nM.
The matching figures for `Nc1nc(N/N=C/c2ccc(N3CCOCC3)cc2)nc2c1ncn2[C@@H]1O[C@H](CO)[C@@H](O)[C@H]1O` [Compound 17, (2R,3R,4S,5R)-2-{6-amino-2-{2-[(E)-4-morpholinobenzylidene]hydrazino}-9H-purin-9-yl}-5-(hydroxymethyl)tetrahydrofuran-3,4-diol]: 186 °C, 1710 nM and 800 nM.
On to `COc1cc(/C=N/Nc2nc(N)c3ncn([C@@H]4O[C@H](CO)[C@@H](O)[C@H]4O)c3n2)cc(OC)c1OC` [Compound 18, (2R,3R,4S,5R)-2-{6-amino-2-{2-[(E)-3,4,5-trimethoxybenzylidene]hydrazino}-9H-purin-9-yl}-5-(hydroxymethyl)tetrahydrofuran-3,4-diol], for which the melting point turned out to be 246 °C. The half-maximal inhibitory concentration (IC50) in data set [1] was greater than 10000 nM.
On to `COc1cc(/C=N/Nc2nc(N)c3ncn([C@@H]4O[C@H](CO)[C@@H](O)[C@H]4O)c3n2)ccc1OCc1ccccc1` [Compound 19, (2R,3R,4S,5R)-2-{6-amino-2-{2-[(E)-4-(benzyloxy)-3-methoxybenzylidene]hydrazino}-9H-purin-9-yl}-5-(hydroxymethyl)tetrahydrofuran-3,4-diol], for which the melting point is 146 °C. Moreover, the half-inhibitory concentration (IC50) in data set [1] is 216 nM. Further, the Ki in data set [1] (setting [3]) is 101 nM.

The record behind these values is patent US20220378816A1, “2-BENZYLIDENE HYDRAZINOADENOSINE COMPOUNDS HAVING A2A ADENOSINE RECEPTOR AGONISTIC ACTIVITY” (ACADEMY OF MILITARY MEDICAL SCIENCES, priority 2019, published 2022).
